Measured values reported in paper PMC3404088, “Development of a Small D-Enantiomeric Alzheimer’s Amyloid-β Binding Peptide Ligand for Future In Vivo Imaging Applications” (PLoS ONE, 2012).
Square brackets hold non-standard residues; d marks the D form. Peptide text beside a SMILES is read from it. * marks the point of attachment. 5FAM = O=C1OC2(c3ccc(O)cc3Oc3cc(O)ccc32)c2ccc(C(=O)*)cc21

Key:
Aβ1–42 monomers = target: T1, Aβ1–42 monomers (Homo sapiens, UniProt P05067); experiment: ELISA, compound binding to Aβ1–42 peptide film (predominantly monomers); settings: 10 µg/ml compound; for binding value, binding Aβ1–42 monomers: optical density after pNPP incubation
T1 construct: Aβ1–42 peptide film was prepared from lyophilized powder (Bachem); purchased Bachem
Procedure: (§1) Aβ1–42 peptide film was prepared from lyophilized powder (Bachem). The powder was reconstituted in HFIP to a final concentration of 1 mM, sonicated for 15 min at room temperature (RT), agitated overnight (ON), and aliquoted into non-siliconized microcentrifuge tubes (12 µl corresponding to 55 µg). The HFIP was evaporated under a stream of argon. The resulting peptide film was vacuum dried for 10 min and stored at -80°C. For direct use as peptide film, an aliquot of Aβ1–42 peptide film was reconstituted with 0.54% dimethylsulphoxide (DMSO) in phosphate buffered saline (PBS) to obtain a final concentration of 10 µg/ml and then used for the ELISA as described below. To prepare fibrils, 55 µg aliquot of peptide film was dissolved in 55 µl of 50 mM Tris-HCl, pH 7.4 and incubated at 37°C for five days. Next, the sample was centrifuged (10’000 rpm for 5 min) and the pellet was diluted in 50 mM Tris-HCl, pH 7.4.
(§2) Aβ1–42 peptide preparations were diluted in 0.05 M bicarbonate-carbonate buffer pH 9.6, to the final concentration of 10 µg/ml and coated onto ELISA plates (MaxiSorp, Nunc). After blocking (PBS; 0.05% Tween; 1% BSA), plates were incubated with 2- or 3-fold dilutions of D-compounds (starting concentration: 10 µg/ml) and incubated for 2 h at 37°C. Plates were then washed and incubated for 2 h at 37°C with the detection antibody Rabbit-a-fluorescein isothiocyanate-AP (Sigma; 1∶10’000 dilution) followed by the incubation for 2.5 h at room temperature (RT) with 1 mg/ml of phosphatase substrate (pNPP, Sigma). The absorbance signal was read at 405 nm wavelength using a Tecan plate reader (Tecan Group Lt, Männedorf, Switzerland).
(§3) ELISA plates (MaxiSorp, Nunc) were coated with anti-Aβ antibody 6E10 (Covance) at a concentration of 5 µg/ml. Either monomeric Aβ1–42 peptide film (mainly monomeric) or Aβ1–42 fibrils, which were prepared as described above, were diluted in PBS to the final concentration 10 µg/ml and mixed with 10-fold dilutions of D-peptide compounds in Eppendorf tubes (starting concentration of D-peptide compounds: 10 µg/ml). The tubes were incubated for 2 h at 37°C. Next, samples were distributed onto the ELISA plate and kept for 2 h at 37°C. Plates were washed and incubated for 2 h at 37°C with the detection antibody Rabbit-a-fluorescein isothiocyanate-AP (Sigma; 1∶10′000 dilution) following the incubation overnight (ON) at RT with 1 mg/ml of phosphatase substrate (pNPP, Sigma). The absorbance signal was read at 405 nm wavelength using the Tecan plate reader (Tecan Group Ltd, Männedorf, Switzerland).
(§4) To verify the SPR results, ELISA was employed to assay the interaction of the ACI-80 derivatives ACI-80-Kϕ, ACI-81-Kϕ, ACI-82-Kϕ, ACI-83-Kϕ, ACI-84-Kϕ, ACI-85-Kϕ, ACI-86-Kϕ, ACI-87-Kϕ, [^19F]-ACI-87-Kϕ, ACI-88-Kϕ, [^19F]-ACI-88-Kϕ, ACI-89-Kϕ, [^19F]-ACI-89-Kϕ) with Aβ1–42 fibrils and Aβ peptide film in solution containing mostly monomers and smaller oligomers (Table 4). To avoid any bias by possible conformational influences the ELISA has been carried out in two versions, once with immobilized antibody and once with immobilized Aβ1–42 as described in the methods section. Both assays yielded similar results and confirmed each other. […] Panels A and B in Figure 2 show the results for binding to Aβ1–42 fibrils and panels C and D in Figure 2 show the results for binding to freshly prepared Aβ1–42 peptide film, which contains mostly monomeric Aβ. In Table 4, the performance of the peptides is expressed relative to that of ACI-80-Kϕ.

[1] = Analysis of ACI-80 stability: N-terminal glutamine vs pyroglutamate content by HPLC/ESI-MS; assay type: physicochemical; settings: solid, freshly synthesized and untreated, HPLC/ESI-MS
Procedure: In solution, N-terminal glutamine peptides such as D1 are prone to convert into N-terminal pyroglutamate species: Gln-SHYRHISPAQV → Pyr-SHYRHISPAQV. Therefore, the stability of solid ACI-80, solid ACI-80-Kϕ (ϕ: fluorescein isothiocyanate, covalently linked to the peptide via a lysine (K)) and [^127I]-ACI-80 in solution was investigated by JPT Peptide Technologies GmbH, Berlin, Germany using HPLC/ESI-MS whereby the relative content of N-terminal Gln peptide and N-terminal Pyr peptide was assessed.
An important observation during initial compound stability characterization experiments was the partial conversion of the N-terminal glutamine of [^127I]-ACI-80 into pyro-glutamate. It is known that peptides with an N-terminal glutamine are prone to conversion of this residue into a pyroglutamate. Therefore, the composition of freshly synthesized and untreated ACI-80 and ACI-80-Kϕ as well as [^127I]-ACI-80 after iodination were investigated. […] It was observed that freshly synthesized ACI-80 and ACI-80-Kϕ contained only minor fractions of pyroglutamic acid while about one third of [^127I]-ACI-80 in solution already converted into N-terminal pyroglutamate species.

Aβ1–42 fibrils [2] = target: T2, Aβ1–42 fibrils (Homo sapiens, UniProt P05067); experiment: SPR single cycle experiments (Biacore T100), heterogeneous ligand model; assay type: binding; set-up: Rmax1 / Rmax2 / k off2: unit not given here; settings: PBS pH 7.4, 25°C, 30 µl/min
T2 construct: Aβ1–42 was dissolved in hexafluoroisopropanol (HFIP)
Procedure: Aβ1–42 fibrils were prepared as described above. Thereafter, the sample was centrifuged for 10 min at 16000×g, the supernatant discarded and this procedure repeated for 3 times. Formation of fibrils was confirmed by a standard Thioflavin-T fluorescence assay. Aβ1–42 fibrils were covalently immobilized on a CM5 sensor chip via amine coupling. Prior to immobilization of Aβ1–42 fibrils the sample was centrifuged and fibrils resuspended in 10 mM sodium acetate buffer pH 4.0. Flow cell sensor surfaces were activated with a freshly prepared solution of 0.2 M 1-ethyl–3-(3-dimethylaminopropyl)-carbodiimide (EDC) and 0.05 M N-hydroxysuccinimide (NHS) at a constant flow rate of 10 µl/min for 420 s. Aβ1–42 fibrils (∼ 110 µM monomeric Aβ1–42) were injected for 600 s with a flow rate of 10 µl/min. Deactivation of the surface was performed by injection of 1 M ethanolamine-HCl pH 8.5 at the same flow rate and duration as in the activation step. In the reference cells the deactivation step was performed directly after the activation step. All SPR experiments were performed on a Biacore T100 system with series S CM5 sensor chips at 25°C. The system was run with the Biacore T100 Control Software Version 1.1.1. PBS (10 mM sodium phosphate buffer pH 7.4, 137 mM NaCl, 2.7 mM KCl) was chosen as running buffer (as previously during fibril formation) in order to minimize alterations of fibril organization. All buffers were sterile filtered (0.22 µm). After each docking of a sensor chip the detector was normalized with BIAnormalizing solution (70% glycerol, GE Healthcare) to compensate for slight differences in detector responses of individual sensor chips. For all interaction analyses the Type 1 reagent rack was used. Siliconized sample vials were used with their corresponding rubber caps (Type 2, GE Healthcare) to minimize evaporation effects. Throughout all runs the flow rate was set to 30 µl/min. All interaction studies were performed in single-cycle mode. Here, five different concentrations of analyte were passed through a reference cell and subsequently through flow cells with immobilized ligand within the same binding cycle for 60 seconds, starting with the lowest concentration. Successive injections were performed in the order of increasing concentrations. Each following concentration was a fivefold increase of the previous. The lowest analyte concentration was chosen to be 100 nM and therefore the following were 500, 2500, 12500 and 62500 nM. Biacore data were evaluated using BiaEvaluation 4.1.1 (GE Healthcare) and Biacore T100 Evaluation Software (GE Healthcare). Obtained binding data with compounds were double referenced. This was achieved by collecting the data in dual-channel mode with a reference flow cell connected upstream of the flow cell with immobilized Aβ1–42 fibrils and the subtraction of the obtained binding responses with a blank buffer injection (PBS).

Aβ1–42 fibrils [3] = target: T2, Aβ1–42 fibrils; experiment: ELISA, compound binding to Aβ1–42 fibrils; settings: for binding value, binding Aβ1–42 fibrils: optical density after pNPP incubation
Procedure: as §1, §2, §3, §4

[4] = target: T3, Aβ plaques in brain sections of transgenic APP (V717I) x PS1 (A246E) mice (Homo sapiens, UniProt P05067); experiment: Ex vivo staining of mouse brain slices by FITC labeled compounds
T3 construct: triple image overlay of respective stains reveal that the ϕ-compounds identify plaques; from tissue; host or cells: brain cryosections of APP (V717I) x PS1 (A246E) transgenic mice
Procedure: In vitro tissue section staining was performed according to previously described protocols with slight modifications. Mouse brains were obtained from male transgenic (tg) APP (London mutation V717l) x PS1 (A246E) mice aged 13–21 months and from female wild type (wt) mice aged 9–10 months. The mice were anesthetized and transcardially perfused with saline. The brains were removed and snap frozen. 10 µm thick sagittal cryostat sections through the whole mouse brain were produced and mounted onto glass slides. ϕ-labeled compounds were applied to investigate binding. Thus, the slides were thawed, washed in PBS and fixed in 4% paraformaldehyde (20 min at RT) just before incubation with ϕ-labeled compounds. One series of sections was treated only with fluorescent compounds (0.01 mg/ml, incubation time 2 h) while another series of sections were incubated with anti-Aβ antibody 6E10 at 1∶500 dilution (SIG-39320, Covance; final antibody concentration was 2 µg/ml) in addition to ϕ-labeled compounds (0.01 mg/ml). The slices were washed in PBS. The sections incubated with ϕ-labeled compound and 6E10 antibody were further incubated for 2 h at RT with Goat-anti-Mouse IgG1– AlexaFluor 555 (A21127, Invitrogen, 1∶1000 dilution) and washed with PBS. Finally, all sections were counterstained with 4’–6-Diamidino-2-phenylindole (DAPI, 32670, Sigma, incubation 5 min at RT) for the visualization of cell nuclei. The slides were mounted using Prolong Gold Antifade mounting medium (P36930, Invitrogen) and coverslipped.
The tissues were analyzed using a fluorescent Zeiss Axioscope 2 Plus microscope using the AxioVision 4 image analysis software.
A further series of slices was stained using a primary anti-fluorescein isothiocyanate antibody combined with alkaline phosphatase reaction for visualization of ϕ-labeled peptides. Briefly, the sections were treated with blocking solution (10% normal goat serum (NGS), 0.25% Triton X-100 in PBS for 1 h at RT) and incubated with primary antibody (rabbit-anti-FITC; Invitrogen) at a dilution of 1∶500. The sections were then washed and incubated for 2 h at RT with the secondary antibody goat-anti-rabbit-alkaline phosphatase (Sigma) at a dilution of 1∶100. After washing, the slides were incubated with BCIP/NBT substrate (Sigma) for 3 min, washed, dehydrated and mounted using Eukitt mounting medium.

[5] = average of two or three experiments
[6] = 10 µg/ml compound, average of two or three experiments

| Compound | binding value, binding Aβ1–42 monomers (Aβ1–42 monomers; [5]) | Identified amino acid at the N-terminal position: glutamine ([1]; relative content of N-terminal Gln peptide) | Identified amino acid at the N-terminal position: pyroglutamate ([1]; relative content of N-terminal Pyr peptide) | Rmax2 (Aβ1–42 fibrils [2]) | k off1 (Aβ1–42 fibrils [2]) | k off2 (Aβ1–42 fibrils [2]) | k on1 (Aβ1–42 fibrils [2]) | k on2 (Aβ1–42 fibrils [2]) | Rmax1 (Aβ1–42 fibrils [2]; global fit of three lowest responding concentrations) | binding value, binding Aβ1–42 fibrils (Aβ1–42 fibrils [3]; [6]) | binding value, binding Aβ1–42 monomers (Aβ1–42 monomers; value of one single experiment only) | staining / recognition of Aβ plaques ([4]; 0.01 mg/ml ϕ-labeled compound, 2 h, 10 µm cryostat sections, fluorescence microscopy) | overlay with 6E10 anti-Aβ staining ([4]; co-staining with 6E10 (2 µg/ml) and DAPI, triple overlay) | staining pattern ([4]; fluorescence microscopy) | ELISA binding to Aβ1–42 (Aβ1–42 fibrils [3]) | binding value, binding Aβ1–42 fibrils (Aβ1–42 fibrils [3]; 10 µg/ml compound, value of one single experiment only) | % binding relative to ACI-80-Kϕ, Aβ1–42 monomers (Aβ1–42 monomers; ACI-80-Kϕ = 100) | % binding relative to ACI-80-Kϕ, Aβ1–42 fibrils (Aβ1–42 fibrils [3]; 10 µg/ml compound, ACI-80-Kϕ = 100) |
| --- | --- | --- | --- | --- | --- | --- | --- | --- | --- | --- | --- | --- | --- | --- | --- | --- | --- | --- |
| CC[C@@H](C)[C@@H](NC(=O)[C@@H](Cc1c[nH]cn1)NC(=O)[C@@H](CCCNC(=N)N)NC(=O)[C@@H](Cc1ccc(O)cc1)NC(=O)[C@@H](Cc1c[nH]cn1)NC(=O)[C@@H](CO)NC(=O)[C@H](N)CCC(N)=O)C(=O)N[C@H](CO)C(=O)N1CCC[C@@H]1C(=O)N[C@H](C)C(=O)N[C@H](CCC(N)=O)C(=O)N[C@@H](C(=O)N[C@H](CCCCNC(=O)c1ccc2c(c1)C(=O)OC21c2ccc(O)cc2Oc2cc(O)ccc21)C(=O)O)C(C)C [ACI-80-Kϕ] (H-[dQ][dS][dH][dY][dR][dH][dI][dS][dP][dA][dQ][dV][dK](5FAM)-OH; C-terminus assumed) | 0.49 | >94.4% | <5.6% | 43.7 | 0.0252 | 1.58 | 469 | 1.37e4 | 12.2 | 0.90 | – | – | – | – | – | – | – | – |
| PSHYRHISPAQKK[^19F]ϕ [[^19F]-ACI-89-Kϕ, fluorinated ϕ-labeled ACI-89] | – | – | – | – | – | – | – | – | – | – | *1.19 | readily recognized amyloid plaques | good overlap with 6E10 Aβ staining | more diffuse and comparable to the staining of 6E10 Aβ antibody | bound well to Aβ1–42 fibrils | *1.86 | – | – |
| ZSFYRHISPAQVKϕ [ACI-84-Kϕ, ϕ-labeled ACI-80 derivative, Q1Z and H3F] | 0.31 | – | – | – | – | – | – | – | – | 0.58 | – | – | – | – | reduced | – | 63% | 64% |
